Results reported in US20160045497A1, “COMPLEX PREPARATION INCLUDING VALSARTAN AND ROSUVASTATIN CALCIUM AND MANUFACTURING METHOD THEREFOR” (LG LIFE SCIENCES LTD., priority 2013, published 2016).

Experiments:
[1] = test system: patients with hypertension and hyperlipidemia; test: Clinical test of combined vs single administration: change of sitDBP after 8 weeks; assay type: in vivo, human; conditions: valsartan 160 mg and/or rosuvastatin 20 mg
Description: (§1) The following tests were performed for patients with hypertension and hyperlipidemia to evaluate the efficacy and safety of the combined administration of 160 mg of valsartan and 20 mg of rosuvastatin in comparison with single administration of each of them.
(§2) A screening inspection was conducted for the subjects, who were 20- to 80-year-old patients suffering from hypertension and hyperlipidemia, to ascertain whether they met the selection/exclusion criteria, and administration of the drugs for treating hypertension and hyperlipidemia, which the subjects had taken, was stopped. All the patients who passed the screening inspection were subjected to Therapeutic Lifestyle Change (TLC) for 4 to 6 weeks, and their blood pressure and fasting serum lipid level were measured finally in the measurement 2 (0 week) visit. If the measured values were recognized as suitable to the following criteria, the patient was randomly assigned to one group of the four (4) treatment groups. […]
(§3) According to random assignment, each subject was assigned with the same probability to one of a total of four groups consisting of one combined administration group (group 1), two single administration groups (groups 2 and 3) and one placebo group (group 4) as shown in the following table. […] The visit window was±4 days at each visit, and the timing of visit was determined with the standard of 0 week. […]

[2] = test system: patients with hypertension and hyperlipidemia; test: Clinical test of combined vs single administration: change of LDL-C after 8 weeks; assay type: in vivo, human; conditions: valsartan 160 mg and/or rosuvastatin 20 mg
Description: as §1, §2, §3

CC(C)c1nc(N(C)S(C)(=O)=O)nc(-c2ccc(F)cc2)c1/C=C/[C@@H](O)C[C@@H](O)CC(=O)O [Example R20, rosuvastatin]
average amount of change of sitDBP from the baseline (Least Square Mean) [1]: −3.64 mmHg
average rate of change of LDL-C from the baseline (Least Square Mean) [2]: −47.27%

CCCCC(=O)N(Cc1ccc(-c2ccccc2-c2nnn[nH]2)cc1)[C@H](C(=O)O)C(C)C [Example V160, valsartan]
average amount of change of sitDBP from the baseline (Least Square Mean) [1]: −7.26 mmHg
average rate of change of LDL-C from the baseline (Least Square Mean) [2]: −4.52%
